According to paper PMC4667193 (Scientific Reports, 2015):

Tests used:
[1] = system: rat primary hippocampal cell culture; assay: MTT viability assay, AEME-induced neurotoxicity; format: cell-based; settings: 10 nM antagonist/inhibitor added 30 minutes prior to 10^−3 M AEME, 24 hours, % of control
Procedure: Neuronal viability was evaluated in the hippocampal cell culture using the 3-(4,5-dimethylthiazol-2-yl)-2,5-diphenyltetrazolium bromide (MTT; Sigma) reduction assay, with some modification. Briefly, after 24 hours of incubation with 10^−3 M AEME in the absence and in the presence of 10 nM pirenzepine hydrochloride (M1 selective antagonist; Sigma), 10 nM p-F-HHSiD (M3 selective antagonist; Sigma) and the specific inhibitor of different isoforms of PLC U73122 (10 nM)[55] (Sigma), all the medium was removed, and 100 μL of MTT solution, containing 5 mg/mL MTT in PBS and neurobasal medium without phenol red (1:9, v/v) were added. After 3 hours of incubation with MTT at 37 °C in a humidified atmosphere of 5% CO2, the MTT solution was removed and 200 μL of dimethyl sulfoxide was added to each well. After 30 minutes of shaking, the absorbance was measured at 570 nm in a multiwell plate reader (BioTek Synergy H1 Hybrid Reader). Potassium chloride (250 mM) was used as a positive control of neuronal death. Muscarinic antagonists, as well as the iPLC, were added 30 minutes prior to incubation with AEME. The antagonist concentration used was near the pKi[25][56]. A control containing 0.002% DMSO was used, since the iPLC stock solution was previously dissolved in this solvent. The assay was performed in quadruplicate, and the results were expressed as a percentage of the control value.

[2] = system: rat primary hippocampal cell culture; assay: total [^3H]inositol phosphate accumulation in hippocampal cells; format: cell-based; settings: 10^−8 to 10^−3 M
Procedure: Hippocampal cells (1 × 10^6 cells/well) were allowed to equilibrate for 10 minutes with a nutrient solution of the following composition (mM): NaCl 157.00; KCl 5.60; CaCl2 0.27; MgCl2 3.00; NaHCO3 1.80; glucose 5.50 (pH 7.0–7.2) at 37 °C under constant shaking. Cells were incubated with 5 μCi of myo[^3H]inositol (specific activity 18.0 Ci/mmol) for 80 minutes, and lithium chloride (10 mM) for additional 30 minutes. Afterwards, the cells were incubated in the absence (basal level) and in the presence of carbachol (positive control) and AEME (10^−8 to 10^−3 M) for 10 minutes. Cells were removed from the plate using a 0.1 M NaOH solution and washed three times with nutrient solution, transferred to 2 mL of methanol:chloroform (2:1 v-v) at 4 °C and homogenized with a Ultra-Turrax T25 homogenizer at 9500 rpm. Chloroform (0.62 mL) and H2O (0.93 mL) were added to the homogenate, and the solution was centrifuged for 5 minutes at 1,000× g to separate aqueous and organic phases. Total [^3H]inositol phosphate was measured as previously described by Ascoli et al.[45] with slight modification. The aqueous layer was neutralized with 0.1 M HCl and then mixed with 1 mL anion-exchange resin (Dowex AG-X8, formate form, 200–400 mesh), allowed to equilibrate for 30 minutes at room temperature, under agitation, and centrifugated at 1,000× g, for 5 minutes at 4 °C. The resin was then washed sequentially, with 10 mM myo-inositol (2 mL) and 5 mM sodium tetraborate/60 mM sodium formate (2 mL). The resin was incubated for 30 minutes at room temperature with 2 mL of 0.1 M formic acid/1 M ammonium formate). The total [^3H]inositol phosphate was eluted and placed in scintillation vials containing OptiPhase HiSafe 3. The amount of radioactivity was determined in scintillation β-counter (LS 6500 IC, Beckman). Total [^3H]inositol phosphate was expressed as percentage above basal level.

Row | Structure (SMILES) | viable cells [1] | effect on total [^3H]inositol phosphate [2] | concentration giving maximum inositol phosphate accumulation ([2]; 10 minutes)
1 | COc1ccc2c(c1)CC[C@@H]1[C@@H]2CC[C@]2(C)[C@@H](NCCCCCCN3C(=O)C=CC3=O)CC[C@@H]12 [U73122] | 102.6% | – | –
2 | C[N+](C)(C)CCOC(N)=O [carbachol, reference compound] | – | concentration-dependent increase | 10^−5 M
3 | Cl.O[Si](CCCN1CCCCC1)(c1ccc(F)cc1)C1CCCCC1 (centres unmarked) [p-F-HHSiD, p-fluorohexahydro-sila-difenidol hydrochloride] | 85.4% | – | –
4 | CN1CCN(CC(=O)N2c3ccccc3C(=O)Nc3cccnc32)CC1 [pirenzepine] | 98.4% | – | –
